Measured values from ChEMBL document CHEMBL1201862, “PubChem BioAssay data set” (2004).
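How tested: cells in 96-well plates exposed to compound for 48 hours at five concentrations. The concentration for 50% growth inhibition is given as GI50.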 Activity calls are given as the source filed them. No stated cut-off is given here; in the data, active = GI50 up to about 1.1 µM and inactive = higher.

How the values were obtained:
Assay in all cases: NCI anticancer screen, dose series, 48 h
TK-10 = system: TK-10
NCI-H460 = system: NCI-H460
CCRF-CEM = system: CCRF-CEM
OVCAR-5 = system: OVCAR-5
SK-MEL-2 = system: SK-MEL-2
786-0 = system: 786-0
HOP-18 = system: HOP-18
NCI-H522 = system: NCI-H522
OVCAR-8 = system: OVCAR-8
LOX IMVI = system: LOX IMVI
RXF 631 = system: RXF 631
A498 = system: A498
OVCAR-4 = system: OVCAR-4
SN12C = system: SN12C
UO-31 = system: UO-31
SF-268 = system: SF-268
HCT-15 = system: HCT-15
KM-20L2 = system: KM-20L2
ACHN = system: ACHN
SK-MEL-28 = system: SK-MEL-28
COLO 205 = system: COLO 205
UACC-257 = system: UACC-257
KM12 = system: KM12
LXFL 529 = system: LXFL 529
CAKI-1 = system: CAKI-1
NCI-H226 = system: NCI-H226
UACC-62 = system: UACC-62
SW-620 = system: SW-620
SK-MEL-5 = system: SK-MEL-5
U-251 = system: U-251
SNB-19 = system: SNB-19
K562 = system: K562
A549 = system: A549
RPMI-8226 = system: RPMI-8226
NCI-H23 = system: NCI-H23
SF-539 = system: SF-539
HOP-92 = system: HOP-92
M19-MEL = system: M19-MEL
HL-60 = system: HL-60
Malme-3M = system: Malme-3M
DMS-114 = system: DMS-114
HT-29 = system: HT-29
OVCAR-3 = system: OVCAR-3
SK-OV-3 = system: SK-OV-3
HOP-62 = system: HOP-62
MOLT-4 = system: MOLT-4
M14 = system: M14
SNB-75 = system: SNB-75
DLD-1 = system: DLD-1
HCT-116 = system: HCT-116
IGROV-1 = system: IGROV-1
SF-295 = system: SF-295
DMS-273 = system: DMS-273
HCC 2998 = system: HCC 2998
SNB-78 = system: SNB-78
RXF 393 = system: RXF 393
SR = system: SR
EKVX = system: EKVX

## Cc1cc(N(CCC#N)CCC#N)ccc1/C=C1N=C(/C=C\c2ccccc2)N(NC(=O)CC(=O)Nc2ccccc2Cl)C\1=O
TK-10
  GI50: > 100 µM (inactive)
NCI-H460
  GI50: > 100 µM (inactive)
CCRF-CEM
  GI50: > 100 µM (inactive)
OVCAR-5
  GI50: > 100 µM (inactive)
SK-MEL-2
  GI50: > 100 µM (inactive)
786-0
  GI50: > 100 µM (inactive)
HOP-18
  GI50: > 100 µM (inactive)
NCI-H522
  GI50: > 100 µM (inactive)
OVCAR-8
  GI50: > 100 µM (inactive)
LOX IMVI
  GI50: > 100 µM (inactive)
RXF 631
  GI50: > 100 µM (inactive)
A498
  GI50: > 100 µM (inactive)
OVCAR-4
  GI50: > 100 µM (inactive)
SN12C
  GI50: > 100 µM (inactive)
UO-31
  GI50: > 100 µM (inactive)
SF-268
  GI50: > 100 µM (inactive)
HCT-15
  GI50: > 100 µM
KM-20L2
  GI50: > 100 µM (inactive)
ACHN
  GI50: > 100 µM (inactive)
SK-MEL-28
  GI50: > 100 µM (inactive)
COLO 205
  GI50: > 100 µM (inactive)
UACC-257
  GI50: > 100 µM (inactive)
KM12
  GI50: > 100 µM (inactive)
LXFL 529
  GI50: > 100 µM (inactive)
CAKI-1
  GI50: > 100 µM (inactive)
NCI-H226
  GI50: > 100 µM (inactive)
UACC-62
  GI50: > 100 µM (inactive)
SW-620
  GI50: > 100 µM (inactive)
SK-MEL-5
  GI50: > 100 µM (inactive)
U-251
  GI50: > 100 µM (inactive)
SNB-19
  GI50: > 100 µM (inactive)
K562
  GI50: > 100 µM (inactive)
A549
  GI50: > 100 µM (inactive)
RPMI-8226
  GI50: > 100 µM (inactive)
NCI-H23
  GI50: > 100 µM (inactive)
SF-539
  GI50: > 100 µM (inactive)
HOP-92
  GI50: > 100 µM (inactive)
M19-MEL
  GI50: > 100 µM (inactive)
HL-60
  GI50: > 100 µM (inactive)
Malme-3M
  GI50: > 100 µM (inactive)
DMS-114
  GI50: > 100 µM (inactive)
HT-29
  GI50: > 100 µM (inactive)
OVCAR-3
  GI50: > 100 µM (inactive)
SK-OV-3
  GI50: > 100 µM (inactive)
HOP-62
  GI50: > 100 µM (inactive)
MOLT-4
  GI50: > 100 µM (inactive)
M14
  GI50: > 100 µM (inactive)
SNB-75
  GI50: > 100 µM (inactive)
DLD-1
  GI50: > 100 µM (inactive)
HCT-116
  GI50: > 100 µM (inactive)
IGROV-1
  GI50: > 100 µM (inactive)
SF-295
  GI50: > 100 µM (inactive)

## C=CCC12CCC(=O)C=C1CCC1(C2)OCCO1 (stereo not drawn)
DMS-273
  GI50: > 100 µM (inactive)
TK-10
  GI50: > 100 µM (inactive)
HCC 2998
  GI50: > 100 µM (inactive)
NCI-H460
  GI50: > 100 µM (inactive)
SNB-78
  GI50: > 100 µM (inactive)
CCRF-CEM
  GI50: 53.1 µM (inactive)
SK-MEL-2
  GI50: > 100 µM (inactive)
786-0
  GI50: > 100 µM (inactive)
HOP-18
  GI50: > 100 µM (inactive)
NCI-H522
  GI50: > 100 µM (inactive)
OVCAR-8
  GI50: > 100 µM (inactive)
RXF 631
  GI50: > 100 µM (inactive)
A498
  GI50: > 100 µM (inactive)
OVCAR-4
  GI50: > 100 µM (inactive)
SN12C
  GI50: > 100 µM (inactive)
UO-31
  GI50: > 100 µM (inactive)
SF-268
  GI50: > 100 µM (inactive)
HCT-15
  GI50: > 100 µM
KM-20L2
  GI50: > 100 µM (inactive)
ACHN
  GI50: > 100 µM (inactive)
SK-MEL-28
  GI50: > 100 µM (inactive)
COLO 205
  GI50: > 100 µM (inactive)
RXF 393
  GI50: > 100 µM (inactive)
UACC-257
  GI50: > 100 µM (inactive)
KM12
  GI50: > 100 µM (inactive)
LXFL 529
  GI50: > 100 µM (inactive)
CAKI-1
  GI50: > 100 µM (inactive)
NCI-H226
  GI50: > 100 µM (inactive)
UACC-62
  GI50: > 100 µM (inactive)
SW-620
  GI50: > 100 µM (inactive)
SK-MEL-5
  GI50: > 100 µM (inactive)
U-251
  GI50: > 100 µM (inactive)
SNB-19
  GI50: > 100 µM (inactive)
K562
  GI50: 55.2 µM (inactive)
A549
  GI50: > 100 µM (inactive)
RPMI-8226
  GI50: > 100 µM (inactive)
SF-539
  GI50: > 100 µM (inactive)
M19-MEL
  GI50: > 100 µM (inactive)
HL-60
  GI50: 40.4 µM (inactive)
SR
  GI50: > 100 µM (inactive)
Malme-3M
  GI50: > 100 µM (inactive)
DMS-114
  GI50: > 100 µM (inactive)
EKVX
  GI50: > 100 µM (inactive)
OVCAR-3
  GI50: > 100 µM (inactive)
SK-OV-3
  GI50: > 100 µM (inactive)
HOP-62
  GI50: > 100 µM (inactive)
MOLT-4
  GI50: > 100 µM (inactive)
M14
  GI50: > 100 µM (inactive)
SNB-75
  GI50: > 100 µM (inactive)
DLD-1
  GI50: > 100 µM (inactive)
HCT-116
  GI50: > 100 µM (inactive)
IGROV-1
  GI50: > 100 µM (inactive)

## COc1cc2ccc3c4ccccc4cnc3c2cc1OC
TK-10
  GI50: > 100 µM (inactive)
HCC 2998
  GI50: > 100 µM (inactive)
NCI-H460
  GI50: > 100 µM (inactive)
SNB-78
  GI50: > 100 µM (inactive)
CCRF-CEM
  GI50: > 100 µM (inactive)
OVCAR-5
  GI50: > 100 µM (inactive)
SK-MEL-2
  GI50: > 100 µM (inactive)
786-0
  GI50: > 100 µM (inactive)
HOP-18
  GI50: > 100 µM (inactive)
NCI-H522
  GI50: > 100 µM (inactive)
OVCAR-8
  GI50: > 100 µM (inactive)
LOX IMVI
  GI50: > 100 µM (inactive)
RXF 631
  GI50: > 100 µM (inactive)
OVCAR-4
  GI50: > 100 µM (inactive)
SN12C
  GI50: > 100 µM (inactive)
UO-31
  GI50: > 100 µM (inactive)
SF-268
  GI50: > 100 µM (inactive)
HCT-15
  GI50: > 100 µM
KM-20L2
  GI50: > 100 µM (inactive)
ACHN
  GI50: > 100 µM (inactive)
SK-MEL-28
  GI50: > 100 µM (inactive)
COLO 205
  GI50: > 100 µM (inactive)
RXF 393
  GI50: > 100 µM (inactive)
UACC-257
  GI50: > 100 µM (inactive)
KM12
  GI50: > 100 µM (inactive)
LXFL 529
  GI50: > 100 µM (inactive)
CAKI-1
  GI50: > 100 µM (inactive)
NCI-H226
  GI50: > 100 µM (inactive)
UACC-62
  GI50: > 100 µM (inactive)
SW-620
  GI50: > 100 µM (inactive)
SK-MEL-5
  GI50: > 100 µM (inactive)
U-251
  GI50: > 100 µM (inactive)
SNB-19
  GI50: > 100 µM (inactive)
K562
  GI50: > 100 µM (inactive)
A549
  GI50: > 100 µM (inactive)
RPMI-8226
  GI50: > 100 µM (inactive)
NCI-H23
  GI50: > 100 µM (inactive)
SF-539
  GI50: > 100 µM (inactive)
HOP-92
  GI50: > 100 µM (inactive)
M19-MEL
  GI50: > 100 µM (inactive)
HL-60
  GI50: > 100 µM (inactive)
SR
  GI50: > 100 µM (inactive)
Malme-3M
  GI50: > 100 µM (inactive)
EKVX
  GI50: > 100 µM (inactive)
HT-29
  GI50: > 100 µM (inactive)
OVCAR-3
  GI50: > 100 µM (inactive)
SK-OV-3
  GI50: > 100 µM (inactive)
HOP-62
  GI50: > 100 µM (inactive)
MOLT-4
  GI50: 93.1 µM (inactive)
M14
  GI50: > 100 µM (inactive)
SNB-75
  GI50: > 100 µM (inactive)
DLD-1
  GI50: > 100 µM (inactive)
HCT-116
  GI50: > 100 µM (inactive)
IGROV-1
  GI50: > 100 µM (inactive)
SF-295
  GI50: > 100 µM (inactive)

## C/C=C/C=C/c1cc2cc3c(c(O)c2c(=O)[nH]1)C1(CC3)C(=O)c2c(O)c3c(c(O)c2C1=O)C(=O)C(OC)=CC3=O (stereo not drawn)
DMS-273
  GI50: 0.414 µM (active)
SNB-78
  GI50: 4.11 µM (inactive)
HOP-18
  GI50: 0.615 µM (active)
RXF 631
  GI50: 13.2 µM (inactive)
KM-20L2
  GI50: 1.08 µM (active)
LXFL 529
  GI50: 0.44 µM (active)
M19-MEL
  GI50: 0.953 µM (active)
DMS-114
  GI50: 0.337 µM (active)
DLD-1
  GI50: 0.552 µM (active)
